According to patent US20250145665A1, “MACROCYCLIC PEPTIDES USEFUL AS MODULATORS OF TNF ALPHA” (Bristol-Myers Squibb Company, priority 2023, published 2025):
Starred links: 1 amine or outer side, 2 acyl side, 3 side chain; linkers in the order of their positions; H or OH if unused. Positions of bridges follow the written chain, without caps; N, C: chain ends. Non-standard residues stand in square brackets, D forms with d. Residues, ends and D or L forms follow the SMILES beside them. *: point of attachment. Bip(4'-(3-HOOC-benzamido)) = N[C@@H](Cc1ccc(-c2ccc(NC(=O)c3cccc(C(=O)O)c3)cc2)cc1)C(=O)O; Bip(4'-NHBz) = N[C@@H](Cc1ccc(-c2ccc(NC(=O)c3ccccc3)cc2)cc1)C(=O)O; Bip(4'-NH) = O=C([C@H](Cc1ccc(-c2ccc(N[*:3])cc2)cc1)N[*:1])[*:2]; Bip(4'-COOH) = N[C@@H](Cc1ccc(-c2ccc(C(=O)O)cc2)cc1)C(=O)O; X11 = CC(=O)N[C@@H](Cc1cn(CC(=O)O)c2ccccc12)C(=O)*; Benzoyl(3-OCH2COOH) = O=C(O)COc1cccc(C(=O)*)c1; Phe(3-CONH2) = NC(=O)c1cccc(C[C@H](N)C(=O)O)c1; Bip = N[C@@H](Cc1ccc(-c2ccccc2)cc1)C(=O)O; Tiq1c(1S) = O=C(O)[C@H]1NCCc2ccccc21; 2Pal = N[C@@H](Cc1ccccn1)C(=O)O; Tic = O=C(O)[C@@H]1Cc2ccccc2CN1; Cha = N[C@@H](CC1CCCCC1)C(=O)O; Tle = CC(C)(C)[C@H](N)C(=O)O; Aze = O=C(O)[C@@H]1CCN1; Sar = CNCC(=O)O

Target: TNFα (Homo sapiens, UniProt P01375)
Assay: TNF-Induced HEK-Blue Assay
Type: cell-based
Settings: not given

TNFα, sequence (P01375 77-233 limits assumed): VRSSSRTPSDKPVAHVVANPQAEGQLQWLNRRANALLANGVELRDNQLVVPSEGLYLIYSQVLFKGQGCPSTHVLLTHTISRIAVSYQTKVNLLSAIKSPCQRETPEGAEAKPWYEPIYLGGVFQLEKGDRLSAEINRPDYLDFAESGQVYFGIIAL

Row | SMILES | IC50
1 | CC[C@H](C)[C@@H]1NC(=O)[C@@H](CCCNC(=N)N)NC(=O)[C@H](CC(=O)O)NC(=O)[C@H](Cc2cnc[nH]2)NC(=O)CN(C)C(=O)[C@H](Cc2ccc(-c3ccc(NC(=O)c4ccccc4)cc3)cc2)NC(=O)[C@H](Cc2ccc(-c3ccc(C(=O)O)cc3)cc2)NC(=O)[C@H](CC2CCCCC2)NC(=O)CSC[C@@H](C(=O)NCC(N)=O)NC(=O)[C@H](CC(C)C)NC(=O)[C@H](Cc2cnc[nH]2)NC(=O)[C@H](C(C)C)NC(=O)[C@@H]2Cc3ccccc3CN2C1=O [Example 370] ({CH2CO}-[Cha][Bip(4'-COOH)][Bip(4'-NHBz)][Sar]HD[dR]I[Tic]VHLCG-NH2; thioether N-13) | < 50 nM
2 | CC[C@H](C)[C@@H]1NC(=O)[C@@H](CCCNC(=N)N)NC(=O)[C@H](CC(=O)O)NC(=O)[C@H](Cc2cnc[nH]2)NC(=O)CN(C)C(=O)[C@H](Cc2ccc(-c3ccc(NC(=O)c4ccccc4)cc3)cc2)NC(=O)[C@H](Cc2ccc(-c3ccc(C(=O)O)cc3)cc2)NC(=O)[C@H](CC2CCCCC2)NC(=O)CSC[C@@H](C(=O)NCC(N)=O)NC(=O)[C@H](CC(C)C)NC(=O)[C@H](Cc2cnc[nH]2)NC(=O)[C@H](C(C)C)NC(=O)[C@@H]2c3ccccc3CCN2C1=O [Example 373] ({CH2CO}-[Cha][Bip(4'-COOH)][Bip(4'-NHBz)][Sar]HD[dR]I[Tiq1c(1S)]VHLCG-NH2; thioether N-13) | < 50 nM
3 | CC[C@H](C)[C@@H]1NC(=O)[C@@H](CCCNC(=N)N)NC(=O)[C@H](CC(=O)O)NC(=O)[C@H](Cc2cnc[nH]2)NC(=O)CN(C)C(=O)[C@H](Cc2ccc(-c3ccc(NC(=O)c4cccc(OCC(=O)O)c4)cc3)cc2)NC(=O)[C@H](Cc2ccc(-c3ccc(C(=O)O)cc3)cc2)NC(=O)[C@H](CC2CCCCC2)NC(=O)CSC[C@@H](C(=O)NCC(N)=O)NC(=O)[C@H](CC(C)C)NC(=O)[C@H](Cc2cnc[nH]2)NC(=O)[C@H](C(C)C)NC(=O)[C@@H]2c3ccccc3CCN2C1=O [Example 375] ({CH2CO}-[Cha][Bip(4'-COOH)][Bip(4'-NH)](Benzoyl(3-OCH2COOH))[Sar]HD[dR]I[Tiq1c(1S)]VHLCG-NH2; thioether N-13) | < 50 nM
4 | CC[C@H](C)[C@@H]1NC(=O)[C@@H]2CCN2C(=O)[C@H]([C@@H](C)CC)NC(=O)[C@@H](CCCNC(=N)N)NC(=O)[C@H](CC(=O)O)NC(=O)[C@H](Cc2ccc(O)cc2)NC(=O)CN(C)C(=O)[C@H](Cc2ccc(-c3ccc(NC(=O)c4ccccc4)cc3)cc2)NC(=O)[C@H](Cc2ccc(-c3ccccc3)cc2)NC(=O)[C@H](C(C)(C)C)NC(=O)CSC[C@@H](C(=O)NCC(N)=O)NC(=O)[C@H](CC(C)C)NC(=O)[C@H](Cc2ccc(O)cc2)NC1=O [Example 376] ({CH2CO}-[Tle][Bip][Bip(4'-NHBz)][Sar]YD[dR]I[Aze]IYLCG-NH2; thioether N-13) | 50 to 200 nM

Same assay, conditions: HEK-Blue-CD40L cells, NF-kB-driven secreted alkaline phosphatase reporter; TNFα 0.5 ng/ml; 18 h; read-out: TNF induced HEK-Blue assay IC50 value

Row | SMILES | IC50
5 | CC[C@H](C)[C@@H]1NC(=O)[C@@H](CCCNC(=N)N)NC(=O)[C@H](CC(=O)O)NC(=O)[C@H](Cc2cnc[nH]2)NC(=O)CN(C)C(=O)[C@H](Cc2ccc(-c3ccc(NC(=O)c4cccc(C(=O)O)c4)cc3)cc2)NC(=O)[C@H](Cc2ccc(-c3ccc(C(=O)O)cc3)cc2)NC(=O)[C@H](CC2CCCCC2)NC(=O)CSC[C@@H](C(=O)NCC(N)=O)NC(=O)[C@H](CC(C)C)NC(=O)[C@H](Cc2cnc[nH]2)NC(=O)[C@H](C(C)C)NC(=O)[C@@H]2Cc3ccccc3CN2C1=O [Example 371] ({CH2CO}-[Cha][Bip(4'-COOH)][Bip(4'-(3-HOOC-benzamido))][Sar]HD[dR]I[Tic]VHLCG-NH2; thioether N-13) | < 50 nM
6 | CC[C@H](C)[C@@H]1NC(=O)[C@@H](CCCNC(=N)N)NC(=O)[C@H](CC(=O)O)NC(=O)[C@H](Cc2cnc[nH]2)NC(=O)CN(C)C(=O)[C@H](Cc2ccc(-c3ccc(NC(=O)c4cccc(OCC(=O)O)c4)cc3)cc2)NC(=O)[C@H](Cc2ccc(-c3ccc(C(=O)O)cc3)cc2)NC(=O)[C@H](CC2CCCCC2)NC(=O)CSC[C@@H](C(=O)NCC(N)=O)NC(=O)[C@H](CC(C)C)NC(=O)[C@H](Cc2cnc[nH]2)NC(=O)[C@H](C(C)C)NC(=O)[C@@H]2Cc3ccccc3CN2C1=O [Example 372] ({CH2CO}-[Cha][Bip(4'-COOH)][Bip(4'-NH)](Benzoyl(3-OCH2COOH))[Sar]HD[dR]I[Tic]VHLCG-NH2; thioether N-13) | < 50 nM

Results, then the molecule that gave them:

Row | IC50 | SMILES
7 | < 50 nM | CC[C@H](C)[C@@H]1NC(=O)[C@@H](CCCNC(=N)N)NC(=O)[C@H](CC(=O)O)NC(=O)[C@H](Cc2cnc[nH]2)NC(=O)CN(C)C(=O)[C@H](Cc2ccc(-c3ccc(NC(=O)c4cccc(C(=O)O)c4)cc3)cc2)NC(=O)[C@H](Cc2ccc(-c3ccc(C(=O)O)cc3)cc2)NC(=O)[C@H](CC2CCCCC2)NC(=O)CSC[C@@H](C(=O)NCC(N)=O)NC(=O)[C@H](CC(C)C)NC(=O)[C@H](Cc2cnc[nH]2)NC(=O)[C@H](C(C)C)NC(=O)[C@@H]2c3ccccc3CCN2C1=O [Example 374] ({CH2CO}-[Cha][Bip(4'-COOH)][Bip(4'-(3-HOOC-benzamido))][Sar]HD[dR]I[Tiq1c(1S)]VHLCG-NH2; thioether N-13)
8 | 50 to 200 nM | CC[C@H](C)[C@@H]1NC(=O)[C@@H]2CCN2C(=O)[C@H]([C@@H](C)CC)NC(=O)[C@@H](CCCNC(=N)N)NC(=O)[C@H](CC(=O)O)NC(=O)[C@H](Cc2ccc(O)cc2)NC(=O)CN(C)C(=O)[C@H](Cc2ccc(-c3ccc(NC(=O)c4cccc(C(=O)O)c4)cc3)cc2)NC(=O)[C@H](Cc2ccc(-c3ccccc3)cc2)NC(=O)[C@H](C(C)(C)C)NC(=O)CSC[C@@H](C(=O)NCC(N)=O)NC(=O)[C@H](CC(C)C)NC(=O)[C@H](Cc2ccc(O)cc2)NC1=O [Example 377] ({CH2CO}-[Tle][Bip][Bip(4'-(3-HOOC-benzamido))][Sar]YD[dR]I[Aze]IYLCG-NH2; thioether N-13)
9 | < 50 nM | CC[C@H](C)[C@@H]1NC(=O)[C@@H]2CCN2C(=O)[C@H]([C@@H](C)CC)NC(=O)[C@@H](CCCNC(=N)N)NC(=O)[C@H](CC(=O)O)NC(=O)[C@H](Cc2ccc(O)cc2)NC(=O)CN(C)C(=O)[C@H](Cc2ccc(-c3ccc(NC(=O)c4cccc(OCC(=O)O)c4)cc3)cc2)NC(=O)[C@H](Cc2ccc(-c3ccccc3)cc2)NC(=O)[C@H](C(C)(C)C)NC(=O)CSC[C@@H](C(=O)NCC(N)=O)NC(=O)[C@H](CC(C)C)NC(=O)[C@H](Cc2ccc(O)cc2)NC1=O [Example 378] ({CH2CO}-[Tle][Bip][Bip(4'-NH)](Benzoyl(3-OCH2COOH))[Sar]YD[dR]I[Aze]IYLCG-NH2; thioether N-13)
10 | 50 to 200 nM | CC[C@H](C)[C@@H]1NC(=O)[C@@H]2CCCN2C(=O)[C@H]([C@@H](C)CC)NC(=O)[C@@H](CCCNC(=N)N)NC(=O)[C@H](CC(=O)O)NC(=O)[C@H](Cc2ccccn2)NC(=O)CN(C)C(=O)[C@H](Cc2ccc(-c3ccc(NC(=O)[C@H](Cc4cn(CC(=O)O)c5ccccc45)NC(C)=O)cc3)cc2)NC(=O)[C@H](Cc2ccc(-c3ccccc3)cc2)NC(=O)[C@H](C(C)(C)C)NC(=O)CSC[C@@H](C(=O)NCC(N)=O)NC(=O)[C@H](CC(C)C)NC(=O)[C@H](Cc2cccc(C(N)=O)c2)NC1=O [Example 379] ({CH2CO}-[Tle][Bip][Bip(4'-NH)](X11)[Sar][2Pal]D[dR]IPI[Phe(3-CONH2)]LCG-NH2; thioether N-13)
